From US8609849B1, “Hydroxylated sulfamides exhibiting neuroprotective action and their method of use” (Fox Chase Chemical Diversity Center, Inc., priority 2010, dated 2013)

system: Hippocampal Cultures; assay: Neuroprotection from hydrogen peroxide (oxidative stress), propidium iodide assay; type: cell-based; details: Rattus norvegicus, read-out: NP from HP PI EC50
Source text: (§1) Cell cultures: All compounds are screened with dissociated hippocampal cultures derived from embryonic day 18 rats as the primary test system. With this preparation, primary neurons are used to test for toxicity as well as neuroprotection in a highly relevant experimental system to epilepsy. In brief, hippocampal tissue are obtained commercially through Brain Bits (Springfield, Ill.) and cultures prepared as previously described by Brewer (Brewer, G. J. Serum-free B27/neurobasal medium supports differentiated growth of neurons from the striatum, substantia nigra, septum, cerebral cortex, cerebellum and dentate gyms, J. Neurosci. Res. 1995, 42, 674-683.). The hippocampal neurons are platted at low density (10,000 cell/well) in a 96-well format and maintained in serum-free medium consisting of Neurobasal Medium supplemented with B27 and GlutaMAX (Gibco). Pre-coated poly-L-lysine coated plates are used because of the preferential adherence and survival of hippocampal neurons on this matrix support.
(§2) Potent neuroprotection is the distinguishing characteristic that separates this program's anticonvulsants from all other commercial drugs for epilepsy. The experimental details and the rationale for the implemented assays are essential in differentiating these compounds from that of others. The central objective of all neuroprotective assays was their relevancy to excitotoxicity and oxidative stress related to epilepsy. Both the amount of glutamate and hydrogen peroxide used in the assays, as well as the time of treatment and duration of the experiment, were designed to be relevant to epilepsy. Further, all time parameters employed in these studies were empirically determined to be within the limits of reversible toxic events, yet using amounts of glutamate and hydrogen peroxide that were relevant to the disease. In regard to glutamate toxicity, a critical feature was the duration of treatment of the hippocampal neurons. The rational for using a short 5 min treatment with glutamate was based on the observation of Randall and Thayer (Randall, R. D.; Thayer, S. A. Glutamate-induced calcium transient triggers calcium overload and neurotoxicity in rat hippocampal neurons, J. Neurosci. 1992, 12, 1882-1895). […] The rationale is that this intense burst of glutamate and resulting calcium overload is relevant to seizures and therefore was important data to capture in the screening assay. The amount of glutamate (30 μM) employed in our screening was based on the basal levels of glutamate observed in microdialysis measurements of hippocampus from epileptogenic patients (Cavus et al. Decreased hippocampal volume on MRI is associated with increased extracellular glutamate in epilepsy patients, Epilepsia, 2008, 49, 1358-1366.). In regard to hydrogen peroxide, the amount employed (10 μM) was detected in the hippocampus of rats after kainate-induced status epilepticus (Jarrett et. al., Mitochondrial DNA damage and impaired base excision repair during epileptogenesis, Neurobiol. Dis. 2008, 30, 130-138). To produce neural damage and death with these amounts of glutamate and hydrogen peroxide, the cultures were changed to a medium with significant depletion of antioxidant components in the defined medium supplement B-27 just prior to treatment with the compounds. This was performed to obtain a significant and reproducible toxic signal in the hippocampal neurons and because loss of antioxidant control may be a component of epileptogenesis (Waldbaum and Patel, Mitochondria, oxidative stress and temporal lobe epilepsy, Epilepsy Res. 2010 88, 23-45.; Wu et al., Mitochondrial DNA mutation-elicited oxidative stress, oxidative damage, and altered gene expression in cultured cells of patients with MERRF syndrome, Mol. Neurobiol. 2010, 41, 256-266.). Neuroprotection studies with hydrogen peroxide were conducted with cultures that were between day 12 and day 18. Studies of neuroprotection glutamate were conducted between day 19 and day 22. […]

SMILES | EC50
NS(=O)(=O)NCCC(O)c1c(F)cccc1F (centres unmarked) [Example 22, 3-(2,6-Difluoro-phenyl)-3-hydroxypropyl-1-sulfamide] | 10 nM
CC(C)(CNS(N)(=O)=O)C(O)c1ccccc1F (centres unmarked) [Example 5, 3-(2-Fluoro-phenyl)-3-hydroxy-2,2-dimethylpropyl-1-sulfamide] | > 300000 nM
NS(=O)(=O)NCC[C@H](O)c1ccccc1F [Example 15, (S)-3-(2-Fluoro-phenyl)-3-hydroxypropyl-1-sulfamide] | 1 nM
NS(=O)(=O)NCCC(O)c1csc2ccccc12 (centres unmarked) [Example 2, 3-Benzo[b]thiophen-3-yl-3-hydroxypropyl-1-sulfamide] | 30000 nM
NS(=O)(=O)NCCC(O)c1cc(F)ccc1F (centres unmarked) [Example 7, 3-(2,5-Difluoro-phenyl)-3-hydroxypropyl-1-sulfamide] | 1 nM
NS(=O)(=O)NCC[C@@H](O)c1ccccc1F [Example 16, (R)-3-(2-Fluoro-phenyl)-3-hydroxypropyl-1-sulfamide] | > 300000 nM
COc1ccccc1C(O)CCNS(N)(=O)=O (centres unmarked) [Example 14, 3-(2-methoxy-phenyl)-3-hydroxypropyl-1-sulfamide] | 10 nM
CC(O)(CCNS(N)(=O)=O)c1ccccc1Cl (centres unmarked) [Example 3, 3-(2-Chloro-phenyl)-3-hydroxybutanyl-1-sulfamide] | > 300000 nM

same assay, conditions: Rattus norvegicus; 10 μM hydrogen peroxide, hippocampal cultures, propidium iodide (cell death); read-out: NP from HP PI EC50

SMILES | EC50
NS(=O)(=O)NCCC(O)c1ccccc1Cl (centres unmarked) [Example 1, 3-(2-Chloro-phenyl)-3-hydroxypropyl-1-sulfamide] | 1000 nM
NS(=O)(=O)NCCC(O)c1ccccc1Br (centres unmarked) [Example 13, 3-(2-bromo-phenyl)-3-hydroxypropyl-1-sulfamide] | 10000 nM
CC(O)(CCNS(N)(=O)=O)c1ccccc1F (centres unmarked) [Example 10, N-[3-(2-Fluoro-phenyl)-3-hydroxy-butyl]-sulfamide] | 300000 nM

system: Hippocampal Cultures; assay: Neuroprotection from glutamate (excitotoxicity), CFDA assay; type: cell-based; details: Rattus norvegicus, read-out: NP from Glutamate CFDA EC50
Source text: as §1, §2

SMILES | EC50
NS(=O)(=O)NCCC(O)c1c(F)cccc1F (centres unmarked) [Example 22, 3-(2,6-Difluoro-phenyl)-3-hydroxypropyl-1-sulfamide] | 100000 nM
CC(C)(CNS(N)(=O)=O)C(O)c1ccccc1F (centres unmarked) [Example 5, 3-(2-Fluoro-phenyl)-3-hydroxy-2,2-dimethylpropyl-1-sulfamide] | 100 nM
NS(=O)(=O)NCC[C@H](O)c1ccccc1F [Example 15, (S)-3-(2-Fluoro-phenyl)-3-hydroxypropyl-1-sulfamide] | 10 nM
NS(=O)(=O)NCCC(O)c1csc2ccccc12 (centres unmarked) [Example 2, 3-Benzo[b]thiophen-3-yl-3-hydroxypropyl-1-sulfamide] | 100000 nM
NS(=O)(=O)NCCC(O)c1cc(F)ccc1F (centres unmarked) [Example 7, 3-(2,5-Difluoro-phenyl)-3-hydroxypropyl-1-sulfamide] | 30000 nM
COc1ccccc1C(O)CCNS(N)(=O)=O (centres unmarked) [Example 14, 3-(2-methoxy-phenyl)-3-hydroxypropyl-1-sulfamide] | 10 nM
CC(O)(CCNS(N)(=O)=O)c1ccccc1Cl (centres unmarked) [Example 3, 3-(2-Chloro-phenyl)-3-hydroxybutanyl-1-sulfamide] | > 300000 nM

same assay, conditions: Rattus norvegicus; 30 μM glutamate, hippocampal cultures, CFDA (neuronal viability); read-out: NP from Glutamate CFDA EC50

SMILES | EC50
NS(=O)(=O)NCCC(O)c1ccccc1Cl (centres unmarked) [Example 1, 3-(2-Chloro-phenyl)-3-hydroxypropyl-1-sulfamide] | 100 nM
NS(=O)(=O)NCCC(O)c1ccccc1Br (centres unmarked) [Example 13, 3-(2-bromo-phenyl)-3-hydroxypropyl-1-sulfamide] | 10000 nM
CC(O)(CCNS(N)(=O)=O)c1ccccc1F (centres unmarked) [Example 10, N-[3-(2-Fluoro-phenyl)-3-hydroxy-butyl]-sulfamide] | 10000 nM

system: Hippocampal Cultures; assay: Neuroprotection from glutamate (excitotoxicity), propidium iodide assay; type: cell-based; details: Rattus norvegicus, read-out: NP from Glutamate PI EC50
Source text: as §1, §2

SMILES | EC50
NS(=O)(=O)NCCC(O)c1c(F)cccc1F (centres unmarked) [Example 22, 3-(2,6-Difluoro-phenyl)-3-hydroxypropyl-1-sulfamide] | 300000 nM
CC(C)(CNS(N)(=O)=O)C(O)c1ccccc1F (centres unmarked) [Example 5, 3-(2-Fluoro-phenyl)-3-hydroxy-2,2-dimethylpropyl-1-sulfamide] | 100 nM
NS(=O)(=O)NCC[C@H](O)c1ccccc1F [Example 15, (S)-3-(2-Fluoro-phenyl)-3-hydroxypropyl-1-sulfamide] | 10 nM
NS(=O)(=O)NCCC(O)c1csc2ccccc12 (centres unmarked) [Example 2, 3-Benzo[b]thiophen-3-yl-3-hydroxypropyl-1-sulfamide] | 3000 nM
NS(=O)(=O)NCCC(O)c1cc(F)ccc1F (centres unmarked) [Example 7, 3-(2,5-Difluoro-phenyl)-3-hydroxypropyl-1-sulfamide] | 3000 nM
COc1ccccc1C(O)CCNS(N)(=O)=O (centres unmarked) [Example 14, 3-(2-methoxy-phenyl)-3-hydroxypropyl-1-sulfamide] | 100 nM
CC(O)(CCNS(N)(=O)=O)c1ccccc1Cl (centres unmarked) [Example 3, 3-(2-Chloro-phenyl)-3-hydroxybutanyl-1-sulfamide] | > 300000 nM

same assay, conditions: Rattus norvegicus; 30 μM glutamate, hippocampal cultures, propidium iodide (cell death); read-out: NP from Glutamate PI EC50

SMILES | EC50
NS(=O)(=O)NCCC(O)c1ccccc1Cl (centres unmarked) [Example 1, 3-(2-Chloro-phenyl)-3-hydroxypropyl-1-sulfamide] | 100 nM
NS(=O)(=O)NCCC(O)c1ccccc1Br (centres unmarked) [Example 13, 3-(2-bromo-phenyl)-3-hydroxypropyl-1-sulfamide] | 100000 nM
CC(O)(CCNS(N)(=O)=O)c1ccccc1F (centres unmarked) [Example 10, N-[3-(2-Fluoro-phenyl)-3-hydroxy-butyl]-sulfamide] | 10000 nM

system: Hippocampal Cultures; assay: Neuroprotection from hydrogen peroxide (oxidative stress), CFDA assay; type: cell-based; details: Rattus norvegicus, read-out: NP from HP CFDA EC50
Source text: as §1, §2

SMILES | EC50
NS(=O)(=O)NCCC(O)c1c(F)cccc1F (centres unmarked) [Example 22, 3-(2,6-Difluoro-phenyl)-3-hydroxypropyl-1-sulfamide] | 1000 nM
CC(C)(CNS(N)(=O)=O)C(O)c1ccccc1F (centres unmarked) [Example 5, 3-(2-Fluoro-phenyl)-3-hydroxy-2,2-dimethylpropyl-1-sulfamide] | > 300000 nM
NS(=O)(=O)NCC[C@H](O)c1ccccc1F [Example 15, (S)-3-(2-Fluoro-phenyl)-3-hydroxypropyl-1-sulfamide] | 1 nM
NS(=O)(=O)NCCC(O)c1csc2ccccc12 (centres unmarked) [Example 2, 3-Benzo[b]thiophen-3-yl-3-hydroxypropyl-1-sulfamide] | 3000 nM
NS(=O)(=O)NCCC(O)c1cc(F)ccc1F (centres unmarked) [Example 7, 3-(2,5-Difluoro-phenyl)-3-hydroxypropyl-1-sulfamide] | 10 nM
NS(=O)(=O)NCC[C@@H](O)c1ccccc1F [Example 16, (R)-3-(2-Fluoro-phenyl)-3-hydroxypropyl-1-sulfamide] | > 300000 nM
COc1ccccc1C(O)CCNS(N)(=O)=O (centres unmarked) [Example 14, 3-(2-methoxy-phenyl)-3-hydroxypropyl-1-sulfamide] | 10000 nM
CC(O)(CCNS(N)(=O)=O)c1ccccc1Cl (centres unmarked) [Example 3, 3-(2-Chloro-phenyl)-3-hydroxybutanyl-1-sulfamide] | 300000 nM

same assay, conditions: Rattus norvegicus; 10 μM hydrogen peroxide, hippocampal cultures, CFDA (neuronal viability); read-out: NP from HP CFDA EC50

SMILES | EC50
NS(=O)(=O)NCCC(O)c1ccccc1Cl (centres unmarked) [Example 1, 3-(2-Chloro-phenyl)-3-hydroxypropyl-1-sulfamide] | 30000 nM
NS(=O)(=O)NCCC(O)c1ccccc1Br (centres unmarked) [Example 13, 3-(2-bromo-phenyl)-3-hydroxypropyl-1-sulfamide] | 300000 nM
CC(O)(CCNS(N)(=O)=O)c1ccccc1F (centres unmarked) [Example 10, N-[3-(2-Fluoro-phenyl)-3-hydroxy-butyl]-sulfamide] | 100 nM

system: mice; assay: Maximal Electroshock Test (anti-seizure test); type: in vivo; details: at 100 mg/kg
Source text: Seizure-related assays, Maximal electroshock test: The most definitive assay for antiseizure activity is the maximal electroshock (MES) test (Swinyard, E. A. Laboratory evaluation of antiepileptic drugs: review of laboratory methods, Epilepsia, 1969, 10, 107-119.). […] With both rodent assays, the duration of action is of high importance as well as the potency of the response.

SMILES | MES Duration
NS(=O)(=O)NCC[C@H](O)c1ccccc1F [Example 15, (S)-3-(2-Fluoro-phenyl)-3-hydroxypropyl-1-sulfamide] | 4 hrs at 100 mg/kg

same assay, conditions: no dose given

SMILES | MES Duration
NS(=O)(=O)NCCC(O)c1ccccc1Cl (centres unmarked) [Example 1, 3-(2-Chloro-phenyl)-3-hydroxypropyl-1-sulfamide] | 2 h
